Laboratory results: US20080004266A1, “Method for treating proliferative disorders associated with protooncogene products” (priority 2006, published 2008)

Tested on: human acute myelogenous leukemia tumor cell line Mv 4-11
Assay: Mv 4-11 (FLT3-ITD) nude mouse xenograft model
Format: in vivo, human (xenograft in nude mouse)
Conditions: for % T/C value: nude mice, 3 doses
Description: The human acute myelogenous leukemia (AML) cell line, Mv 4-11 (ATCC #CRL-9591), was obtained from the American Type Culture Collection (ATCC; Manassas, Va., USA). Growth of this tumor cell line is dependent upon the expression of an activated form of the FLT3 tyrosine kinase receptor carrying an internal tandem duplication (ITD) mutation, which is the most common molecular defect associated with AML (K. W. Yee et al., Blood 100:2941-2949, 2002). The cells were cultured in growth media prepared with Iscove's Modified Dulbecco's Media, 10% fetal bovine serum (FBS), 1% 100× Penicillin-Streptomycin, 1% 100× sodium pyruvate and 1% 100×MEM non-essential amino acids. FBS was obtained from ATCC and all other reagents were obtained from Invitrogen Corp. (Carlsbad, Calif., USA). Cells that had been cryopreserved in liquid nitrogen were rapidly thawed at 37° C. and transferred to a tissue culture flask containing growth media and then incubated at 37° C. in a 5% CO2 incubator. To expand the cell line, cultures were passaged 1:2 to a density of 5×10 (6) cells/ml every three days by adding an equal volume of fresh growth media. When the flasks reached a density of approximately 10×10 (6) cells/ml, the above passaging process was repeated until sufficient cells had been obtained for implantation into mice.
Seven to eight week old, female Crl:CD-1-nuBR (nude) mice were obtained from Charles River Laboratories (Wilmington, Mass., USA). Animals were housed 4-5/cage in micro-isolators, with a 12 hr/12 hr light/dark cycle, acclimated for at least 1 week prior to use and fed normal laboratory chow ad libitum. Studies were conducted on animals between 8 and 10 weeks of age at implantation. To implant Mv 4-11 tumor cells into nude mice, cell cultures were centrifuged to pellet the cells, the supernatant was aspirated, the cell pellet was resuspended in 10 ml of growth media and the cell number determined using a hemocytometer. […]
Tumors were then permitted to develop in vivo until the majority reached 100-200 mm^3 in tumor volume, which typically required 1-2 weeks following implantation. […] Tumor volumes (V) were calculated by caliper measurement of the width (W), length (L) and thickness (T) of tumors using the following formula: V=0.5236×(L×W×T). Animals were randomized into treatment groups so that the median tumor volumes of each group were similar at the start of dosing. % T/C values, as a measure of efficacy, were determined as follows: • (i) If ΔT>0: % T/C=(ΔT/ΔC)×100 • (ii) If ΔT<0: % T/C=(ΔT/T0)×100 • (iii) ΔT=Change in median tumor volume between start of dosing and the end of study. • (iv) ΔC=Change in median tumor volume between start of dosing and the end of study. • (v) T0=Median tumor volume at start of dosing. […]

[1] = 125 mg/kg i.v. 1 time per week, day 41

Q: How did the “average bodyweight loss relative to the start of the study” value [1] turn out when `CC(C)c1cc(-c2nnc(O)n2-c2ccc3c(ccn3C)c2)c(O)cc1O` [Compound 226, 3-(2,4-di-hydroxy-5-isopropyl-phenyl)-4-(1-methyl-indol-5-yl)-5-hydroxy-[1,2,4] triazole] was run?
A: Its value is −1.4% (+/−1.6 SEM).

Q: What about the “animals with no apparent tumors” value (125 mg/kg treatment group, by day 41 (end of the study)) of the same molecule?
A: The value was 2 of 8.

Q: What about the “% T/C value” (50 mg/kg i.v. 1 time per week, day 41) of the same molecule?
A: The value was −63.8%.

Q: What about the “% T/C value” [1] of the same molecule?
A: The value was −93.0%.
